Legend:
chickweed [1] = experiment: Test Example 4: herbicidal effect by soil treatment (Table 19, symbol P); type: in vivo, common chickweed (Stellaria media); conditions: amount of applied herbicide 320 g/ha
In short: (§1)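 In this soil treatment, the formulated compound reached the seeds only through the soil: seeds were buried about 1.5 cm deep in sterilized diluvial soil, then the diluted emulsion was sprayed over the surface. After three weeks at 25° C. to 30° C. in a greenhouse, effects were graded on criteria from an earlier test.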

blackgrass [2] = experiment: Test Example 5: herbicidal effect by foliage application, plastic box (Table 20, symbol J); type: in vivo, blackgrass (Alopecurus myosuroides); conditions: foliage application, AAH 320 g/ha, evaluated three weeks after application
In short: (§2)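 Plants were sown into sterilized diluvial soil under about 1.5 cm cover and kept in a greenhouse at 25° C. to 30° C. Fourteen days on, foliage received an even spray of the diluted emulsion. Herbicidal or crop effect was judged three weeks afterwards.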

windgrass [3] = experiment: Test Example 5: herbicidal effect by foliage application, plastic box (Table 20, symbol L); type: in vivo, windgrass (Apera spica-venti); conditions: foliage application, AAH 320 g/ha, evaluated three weeks after application
In short: as §2

redroot pigweed [4] = experiment: Test Example 5: herbicidal effect by foliage application, plastic box (Table 20, symbol N); type: in vivo, redroot pigweed (Amaranthus retroflexus); conditions: foliage application, AAH 320 g/ha, evaluated three weeks after application
In short: as §2

blackgrass [5] = experiment: Test Example 4: herbicidal effect by soil treatment (Table 19, symbol J); type: in vivo, blackgrass (Alopecurus myosuroides); conditions: amount of applied herbicide 320 g/ha
In short: as §1

persian speedwell [6] = experiment: Test Example 5: herbicidal effect by foliage application, plastic box (Table 20, symbol R); type: in vivo, Persian speedwell (Veronica persica); conditions: foliage application, AAH 320 g/ha, evaluated three weeks after application
In short: as §2

velvetleaf [7] = experiment: Test Example 5: herbicidal effect by foliage application, plastic box (Table 20, symbol M); type: in vivo, velvetleaf (Abutilon theophrasti); conditions: foliage application, AAH 320 g/ha, evaluated three weeks after application
In short: as §2

barnyard grass [8] = experiment: Test Example 4: herbicidal effect by soil treatment (Table 19, symbol H); type: in vivo, barnyard grass (Echinochloa crus-galli); conditions: amount of applied herbicide 320 g/ha
In short: as §1

oval-leafed pondweed = experiment: Test Example 1: herbicidal activity, application before weed generation under submerged conditions (Table 16, symbol C); type: in vivo, oval-leafed pondweed (Monochoria vaginalis); conditions: 320 g/ha applied herbicide
In short: (§3)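 Submerged Wagner pots (alluvial soil, 4 cm water) sown with weed seeds and planted with 2.5-leaf rice seedlings; emulsifiable concentrate diluted in water applied to water surface on sowing day. Held in greenhouse at 25-30 °C; injury scored 0-5 by herbicidal rate after three weeks.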

rice flat sedge = experiment: Test Example 3: herbicidal effect by foliage application, Wagner pot (Table 18, symbol E); type: in vivo, rice flat sedge (Cyperus iria); conditions: amount of applied herbicide 320 g/ha
In short: (§4)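 Plants were sown in alluvial soil held under 0.1–0.5 cm standing water and grown 14 days in a greenhouse at 25–30 °C. An emulsifiable formulation, water-diluted to the set dose, was then sprayed onto the foliage, and effects were scored three weeks later using previously defined criteria.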

velvetleaf [9] = experiment: Test Example 4: herbicidal effect by soil treatment (Table 19, symbol M); type: in vivo, velvetleaf (Abutilon theophrasti); conditions: amount of applied herbicide 320 g/ha
In short: as §1

redroot pigweed [10] = experiment: Test Example 4: herbicidal effect by soil treatment (Table 19, symbol N); type: in vivo, redroot pigweed (Amaranthus retroflexus); conditions: amount of applied herbicide 320 g/ha
In short: as §1

Italian ryegrass [11] = experiment: Test Example 4: herbicidal effect by soil treatment (Table 19, symbol K); type: in vivo, Italian ryegrass (Lolium multiflorum); conditions: amount of applied herbicide 320 g/ha
In short: as §1

lambsquarters [12] = experiment: Test Example 4: herbicidal effect by soil treatment (Table 19, symbol O); type: in vivo, lambsquarters (Chenopodium album); conditions: amount of applied herbicide 320 g/ha
In short: as §1

barnyard grass [13] = experiment: Test Example 5: herbicidal effect by foliage application, plastic box (Table 20, symbol H); type: in vivo, barnyard grass (Echinochloa crus-galli); conditions: foliage application, AAH 320 g/ha, evaluated three weeks after application
In short: as §2

lambsquarters [14] = experiment: Test Example 5: herbicidal effect by foliage application, plastic box (Table 20, symbol O); type: in vivo, lambsquarters (Chenopodium album); conditions: foliage application, AAH 320 g/ha, evaluated three weeks after application
In short: as §2

Japanese bulrush = experiment: Test Example 1: herbicidal activity, application before weed generation under submerged conditions (Table 16, symbol B); type: in vivo, Japanese bulrush (Schoenoplectus juncoides); conditions: 320 g/ha applied herbicide
In short: as §3

persian speedwell [15] = experiment: Test Example 4: herbicidal effect by soil treatment (Table 19, symbol R); type: in vivo, Persian speedwell (Veronica persica); conditions: amount of applied herbicide 320 g/ha
In short: as §1

wild oat [16] = experiment: Test Example 5: herbicidal effect by foliage application, plastic box (Table 20, symbol I); type: in vivo, wild oat (Avena fatua); conditions: foliage application, AAH 320 g/ha, evaluated three weeks after application
In short: as §2

southern crabgrass [17] = experiment: Test Example 5: herbicidal effect by foliage application, plastic box (Table 20, symbol F); type: in vivo, southern crabgrass (Digitaria ciliaris); conditions: foliage application, AAH 320 g/ha, evaluated three weeks after application
In short: as §2

late watergrass = experiment: Test Example 1: herbicidal activity, application before weed generation under submerged conditions (Table 16, symbol A); type: in vivo, late watergrass (Echinochloa oryzicola); conditions: 320 g/ha applied herbicide
In short: as §3

windgrass [18] = experiment: Test Example 4: herbicidal effect by soil treatment (Table 19, symbol L); type: in vivo, windgrass (Apera spica-venti); conditions: amount of applied herbicide 320 g/ha
In short: as §1

Italian ryegrass [19] = experiment: Test Example 5: herbicidal effect by foliage application, plastic box (Table 20, symbol K); type: in vivo, Italian ryegrass (Lolium multiflorum); conditions: foliage application, AAH 320 g/ha, evaluated three weeks after application
In short: as §2

green foxtail [20] = experiment: Test Example 4: herbicidal effect by soil treatment (Table 19, symbol G); type: in vivo, green foxtail (Setaria viridis); conditions: amount of applied herbicide 320 g/ha
In short: as §1

green foxtail [21] = experiment: Test Example 5: herbicidal effect by foliage application, plastic box (Table 20, symbol G); type: in vivo, green foxtail (Setaria viridis); conditions: foliage application, AAH 320 g/ha, evaluated three weeks after application
In short: as §2

chickweed [22] = experiment: Test Example 5: herbicidal effect by foliage application, plastic box (Table 20, symbol P); type: in vivo, common chickweed (Stellaria media); conditions: foliage application, AAH 320 g/ha, evaluated three weeks after application
In short: as §2

wild oat [23] = experiment: Test Example 4: herbicidal effect by soil treatment (Table 19, symbol I); type: in vivo, wild oat (Avena fatua); conditions: amount of applied herbicide 320 g/ha
In short: as §1

barnyard grass [24] = experiment: Test Example 3: herbicidal effect by foliage application, Wagner pot (Table 18, symbol H); type: in vivo, barnyard grass (Echinochloa crus-galli); conditions: amount of applied herbicide 320 g/ha
In short: as §4

southern crabgrass [25] = experiment: Test Example 4: herbicidal effect by soil treatment (Table 19, symbol F); type: in vivo, southern crabgrass (Digitaria ciliaris); conditions: amount of applied herbicide 320 g/ha
In short: as §1

Chinese sprangletop = experiment: Test Example 3: herbicidal effect by foliage application, Wagner pot (Table 18, symbol D); type: in vivo, chinese sprangletop (Leptochloa chinensis); conditions: amount of applied herbicide 320 g/ha
In short: as §4

| Compound | herbicidal effect on P: chickweed (chickweed [1]) | J: blackgrass, herbicidal effect (criteria 0-5) (blackgrass [2]) | L: windgrass, herbicidal effect (criteria 0-5) (windgrass [3]) | N: redroot pigweed, herbicidal effect (criteria 0-5) (redroot pigweed [4]) | herbicidal effect on J: blackgrass (blackgrass [5]) | R: persian speedwell, herbicidal effect (criteria 0-5) (persian speedwell [6]) | M: velvetleaf, herbicidal effect (criteria 0-5) (velvetleaf [7]) | herbicidal effect on H: barnyard grass (barnyard grass [8]) | Herbicidal effect on C: oval-leafed pondweed (grade 0-5) (oval-leafed pondweed) | herbicidal effect on E: rice flat sedge (rice flat sedge) | herbicidal effect on M: velvetleaf (velvetleaf [9]) | herbicidal effect on N: redroot pigweed (redroot pigweed [10]) | herbicidal effect on K: Italian ryegrass (Italian ryegrass [11]) | herbicidal effect on O: lambsquarters (lambsquarters [12]) | H: barnyard grass, herbicidal effect (criteria 0-5) (barnyard grass [13]) | O: lambsquarters, herbicidal effect (criteria 0-5) (lambsquarters [14]) | Herbicidal effect on B: Japanese bulrush (grade 0-5) (Japanese bulrush) | herbicidal effect on R: persian speedwell (persian speedwell [15]) | I: wild oat, herbicidal effect (criteria 0-5) (wild oat [16]) | F: southern crabgrass, herbicidal effect (criteria 0-5) (southern crabgrass [17]) | also measured |
| --- | --- | --- | --- | --- | --- | --- | --- | --- | --- | --- | --- | --- | --- | --- | --- | --- | --- | --- | --- | --- | --- |
| Cc1nn(C)c(=O)c(-c2c(-c3ccc(F)cc3F)sc3ccc(F)cc23)c1O [2-342] | 3 (Herbicidal rate of 40% or more and less than 70%) | 4 (Herbicidal rate of 70% or more and less than 90%) | 5 (Herbicidal rate of 90% or more (almost completely withered)) | 5 (Herbicidal rate of 90% or more (almost completely withered)) | 3 (Herbicidal rate of 40% or more and less than 70%) | 5 (Herbicidal rate of 90% or more (almost completely withered)) | 5 (Herbicidal rate of 90% or more (almost completely withered)) | 4 (Herbicidal rate of 70% or more and less than 90%) | 0 (Herbicidal rate of 5% or less (almost no effect)) | 5 (Herbicidal rate of 90% or more (almost completely withered)) | 3 (Herbicidal rate of 40% or more and less than 70%) | 4 (Herbicidal rate of 70% or more and less than 90%) | 5 (Herbicidal rate of 90% or more (almost completely withered)) | 4 (Herbicidal rate of 70% or more and less than 90%) | 5 (Herbicidal rate of 90% or more (almost completely withered)) | 5 (Herbicidal rate of 90% or more (almost completely withered)) | 3 (Herbicidal rate of 40% or more and less than 70%) | 3 (Herbicidal rate of 40% or more and less than 70%) | 4 (Herbicidal rate of 70% or more and less than 90%) | 5 (Herbicidal rate of 90% or more (almost completely withered)) | Herbicidal effect on A: late watergrass (grade 0-5) (late watergrass): 2 (Herbicidal rate of 20% or more and less than 40%); herbicidal effect on L: windgrass (windgrass [18]): 3 (Herbicidal rate of 40% or more and less than 70%); K: Italian ryegrass, herbicidal effect (criteria 0-5) (Italian ryegrass [19]): 5 (Herbicidal rate of 90% or more (almost completely withered)); herbicidal effect on G: green foxtail (green foxtail [20]): 4 (Herbicidal rate of 70% or more and less than 90%); G: green foxtail, herbicidal effect (criteria 0-5) (green foxtail [21]): 5 (Herbicidal rate of 90% or more (almost completely withered)); P: chickweed, herbicidal effect (criteria 0-5) (chickweed [22]): 5 (Herbicidal rate of 90% or more (almost completely withered)); herbicidal effect on I: wild oat (wild oat [23]): 0 (Herbicidal rate of 5% or less (almost no effect)); herbicidal effect on H: barnyard grass (barnyard grass [24]): 5 (Herbicidal rate of 90% or more (almost completely withered)); herbicidal effect on F: southern crabgrass (southern crabgrass [25]): 3 (Herbicidal rate of 40% or more and less than 70%); herbicidal effect on D: Chinese sprangletop (Chinese sprangletop): 5 (Herbicidal rate of 90% or more (almost completely withered)) |
| Cc1nn(C)c(=O)c(-c2c(-c3ccc(F)c(F)c3)sc3ccc(F)cc23)c1O [2-344] | 4 (Herbicidal rate of 70% or more and less than 90%) | 2 (Herbicidal rate of 20% or more and less than 40%) | 5 (Herbicidal rate of 90% or more (almost completely withered)) | 5 (Herbicidal rate of 90% or more (almost completely withered)) | 0 (Herbicidal rate of 5% or less (almost no effect)) | 5 (Herbicidal rate of 90% or more (almost completely withered)) | 5 (Herbicidal rate of 90% or more (almost completely withered)) | 4 (Herbicidal rate of 70% or more and less than 90%) | 0 (Herbicidal rate of 5% or less (almost no effect)) | 5 (Herbicidal rate of 90% or more (almost completely withered)) | 3 (Herbicidal rate of 40% or more and less than 70%) | 5 (Herbicidal rate of 90% or more (almost completely withered)) | 5 (Herbicidal rate of 90% or more (almost completely withered)) | 5 (Herbicidal rate of 90% or more (almost completely withered)) | 5 (Herbicidal rate of 90% or more (almost completely withered)) | 4 (Herbicidal rate of 70% or more and less than 90%) | 2 (Herbicidal rate of 20% or more and less than 40%) | 5 (Herbicidal rate of 90% or more (almost completely withered)) | 3 (Herbicidal rate of 40% or more and less than 70%) | 5 (Herbicidal rate of 90% or more (almost completely withered)) | Herbicidal effect on A: late watergrass (grade 0-5) (late watergrass): 0 (Herbicidal rate of 5% or less (almost no effect)); herbicidal effect on L: windgrass (windgrass [18]): 0 (Herbicidal rate of 5% or less (almost no effect)); K: Italian ryegrass, herbicidal effect (criteria 0-5) (Italian ryegrass [19]): 5 (Herbicidal rate of 90% or more (almost completely withered)); herbicidal effect on G: green foxtail (green foxtail [20]): 5 (Herbicidal rate of 90% or more (almost completely withered)); G: green foxtail, herbicidal effect (criteria 0-5) (green foxtail [21]): 5 (Herbicidal rate of 90% or more (almost completely withered)); P: chickweed, herbicidal effect (criteria 0-5) (chickweed [22]): 5 (Herbicidal rate of 90% or more (almost completely withered)); herbicidal effect on I: wild oat (wild oat [23]): 0 (Herbicidal rate of 5% or less (almost no effect)); herbicidal effect on H: barnyard grass (barnyard grass [24]): 5 (Herbicidal rate of 90% or more (almost completely withered)); herbicidal effect on F: southern crabgrass (southern crabgrass [25]): 5 (Herbicidal rate of 90% or more (almost completely withered)); herbicidal effect on D: Chinese sprangletop (Chinese sprangletop): 4 (Herbicidal rate of 70% or more and less than 90%) |
